In patent US20230330025A1, “Particle Modifiers for Multi-Drug Loaded Nanoparticles” (UNIVERSITY OF CONNECTICUT, priority 2022, published 2023):
Structures can show the parent of a compound that is named as a salt.

Assay: In vitro release study (dialysis method)
Format: physicochemical
Details: PBS pH 5.5, 6.5, 7.4; 37 °C; 100 kD dialysis
Protocol: The release study was conducted using a dialysis method with PBS as the buffer media at pH 5.5, 6.5, and 7.4 to simulate the endosomal, tumoral, and plasma conditions, respectively. The pH was adjusted using 1 M HCl solution or 1 M NaOH solution as needed to achieve the desired media pH. Briefly, 5 mL of each formulation were placed in Spectrum Float-A-Lyzer G2 dialysis tubes (Thermo Fisher Scientific, Waltham, MA) with a molecular weight cut-off of 100 kD, which were then immersed in 50 mL of release media. The containers were incubated at 37° C. under shaking at 150 rpm for 96 hours. At 0-, 1-, 2-, 4-, 8-, 12-, 24-, 36-, 48-, 72-, and 96-hour intervals, 500 μL of the sample solution was withdrawn from the release media and replaced with an equal amount of fresh medium. The samples were analyzed using the UPLC-UV method previously described. The error bars were obtained by measuring each sample in triplicate.

COc1cccc2c1C(=O)c1c(O)c3c(c(O)c1C2=O)C[C@@](O)(C(=O)CO)C[C@@H]3O[C@H]1C[C@H](N)[C@H](O)[C@H](C)O1 [DOX solution, Doxorubicin (hydrochloride salt)]
DOX passed through membrane by 24 hours: ~100% | DOX released (passed dialysis membrane) within first 4 hours: About 80%
